test: RAL depletion by compounds in rod outer segment preparation; type: biochemical, bovine; details: rod outer segment preparation containing 64 μM opsin at 37° C.; nominal starting drug 1.00 mM, RAL 60 μM
Protocol: The parameters associated with the RAL depletion chemistry are as follows:
[drawing 47] kapp: apparent second order rate constant of RAL depletion by drug. Kapp: apparent equilibrium constant of RAL depletion by drug.
[formula] ΔGapp: apparent free energy change of RAL depletion by drug. ΔGapp=−RT ln Kapp (2) Kring: equilibrium constant of tautomerism from imine to oxaminal (ring closed).
Frozen bovine rod outer segment preparation (64 μM of opsin) is thawed and vortexed thoroughly. A 200 μL aliquot of this sample is transferred into a 0.5 mL Eppendorf tube. To it is added 10 μL of 20 mM drug stock solution in EtOH, and the mixture is vortexed for 1 min. The tube is incubated at 37° C. in a Thermo Scientific microprocessor controlled 280 series water bath for 3 min before 5 μL freshly prepared 2.4 mM RAL solution in EtOH is added (the nominal starting concentrations of drug and RAL are 1.00 mM and 60 μM, respectively). After vortexing for 1 min, the tube is incubated at 37° C. over time. Aliquots of the reaction mixture (25 μL each) are taken periodically, and added onto 10 mg of solid NaBH4 in a 0.5 mL Eppendorf tube. To the latter is added carefully 400 μL of 2:1 (v/v) EtOH/HOAc. The reduction mixture is vortexed for 1 min and centrifuged. The supernatant is separated, and analyzed by HPLC using a standard HPLC method:
Solvent A: 0.05% HCOOH/95% HPLC grade water/5% HPLC grade MeCN
Solvent B: 0.05% HCOOH HPLC grade MeCN
Detector wavelengths: 329 and 250 nm
Reference wavelength: 400 nm
The RAL depletion percentages are calculated by normalization of ROL and Re-RAL-drug peak integrals, which are then plotted against reaction time. Least squares fit of the RAL depletion plot according to pseudo-first order kinetics yields observed first order rate constant kobsd, and kapp is calculated according to kobsd=kapp[drug]. Kapp is calculated from the equilibrium concentrations of free RAL, free drug and RAL-drug according to equation (1). ΔGapp was calculated according equation (2).

SMILES | Kapp, apparent equilibrium constant of RAL depletion | kapp, apparent second order rate constant of RAL depletion
Cc1ccc(-c2nc3cc(N)c(C(C)(C)O)c(Cl)c3o2)cc1 [Compound 2, 2-(5-amino-7-chloro-2-p-tolylbenzoxazol-6-yl)propan-2-ol] | 2.29×10^6 | 24,700 M^−1·h^−1
CC(C)(O)c1c(N)cc2nc(-c3ccccc3)oc2c1Cl [Compound 3, 2-(5-amino-7-chloro-2-phenylbenzoxazol-6-yl)propan-2-ol] | 7.14×10^6 | 21,600 M^−1·h^−1
CC(C)(O)c1c(N)cc2onc(C3CC3)c2c1Cl [Compound 4, 2-(6-amino-4-chloro-3-cyclopropylbenzisoxazol-5-yl)propan-2-ol] | >2 × 10^7 | 31,700 M^−1·h^−1
CC(C)(O)c1c(N)cc2c(C3CC3)noc2c1Cl [Compound 5, 2-(5-amino-7-chloro-3-cyclopropylbenzisoxazol-6-yl)propan-2-ol] | >2 × 10^7 | 35,300 M^−1·h^−1
CC(C)(O)c1c(N)cc(Cl)c2c(C3CC3)noc12 [Compound 6, 2-(6-amino-4-chloro-3-cyclopropylbenzisoxazol-7-yl)propan-2-ol] | 3.35×10^6 | 12,700 M^−1·h^−1
CC(C)(O)c1nc2ccc(Cl)cc2cc1N [reference compound] | 1.55 × 10^5 | 3,570 M^−1·h^−1
CC(C)(O)c1cc2oc(-c3ccccc3)nc2cc1N [reference compound] | 1.25 × 10^6 | 25,500 M^−1·h^−1

same assay, conditions: rod outer segment preparation containing 64 μM opsin at 37° C.; ΔGapp=−RT ln Kapp

SMILES | ΔGapp, apparent free energy change of RAL depletion [kcal/mol]
Cc1ccc(-c2nc3cc(N)c(C(C)(C)O)c(Cl)c3o2)cc1 [Compound 2, 2-(5-amino-7-chloro-2-p-tolylbenzoxazol-6-yl)propan-2-ol] | -9.0
CC(C)(O)c1c(N)cc2nc(-c3ccccc3)oc2c1Cl [Compound 3, 2-(5-amino-7-chloro-2-phenylbenzoxazol-6-yl)propan-2-ol] | -9.7
CC(C)(O)c1c(N)cc2onc(C3CC3)c2c1Cl [Compound 4, 2-(6-amino-4-chloro-3-cyclopropylbenzisoxazol-5-yl)propan-2-ol] | <-10
CC(C)(O)c1c(N)cc2c(C3CC3)noc2c1Cl [Compound 5, 2-(5-amino-7-chloro-3-cyclopropylbenzisoxazol-6-yl)propan-2-ol] | <-10
CC(C)(O)c1c(N)cc(Cl)c2c(C3CC3)noc12 [Compound 6, 2-(6-amino-4-chloro-3-cyclopropylbenzisoxazol-7-yl)propan-2-ol] | -9.2
CC(C)(O)c1nc2ccc(Cl)cc2cc1N [reference compound] | -7.4
CC(C)(O)c1cc2oc(-c3ccccc3)nc2cc1N [reference compound] | -8.6
